These results are taken from patent publication US9649310B2, “Certain kynurenine-3-monooxygenase inhibitors, pharmaceutical compositions, and methods of use thereof” (CHDI Foundation, Inc., priority 2011, dated 2017).

The first data set deals with T1, KMO mouse enzyme (Mus musculus, UniProt Q91WN4).
T1 construct: KMO enzyme prepared at Evotec from mouse liver (4-6 weeks old) via mitochondria isolation; from tissue; host or cells: mouse liver (4-6 weeks old), mitochondria isolation at Evotec
T1 sequence (Q91WN4 whole entry): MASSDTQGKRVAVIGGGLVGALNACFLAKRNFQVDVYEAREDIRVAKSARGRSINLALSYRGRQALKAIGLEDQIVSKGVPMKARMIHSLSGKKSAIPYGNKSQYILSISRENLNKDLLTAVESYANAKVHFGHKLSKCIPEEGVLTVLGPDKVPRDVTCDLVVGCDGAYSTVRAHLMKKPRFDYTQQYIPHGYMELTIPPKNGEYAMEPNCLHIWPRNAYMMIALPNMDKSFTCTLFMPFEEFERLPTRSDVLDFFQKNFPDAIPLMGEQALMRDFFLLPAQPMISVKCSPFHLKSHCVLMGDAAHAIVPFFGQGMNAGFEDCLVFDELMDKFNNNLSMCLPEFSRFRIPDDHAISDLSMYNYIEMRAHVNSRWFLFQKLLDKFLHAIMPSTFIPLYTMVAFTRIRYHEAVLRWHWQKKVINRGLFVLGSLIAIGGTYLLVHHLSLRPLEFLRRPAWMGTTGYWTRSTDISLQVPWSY
The data set is described as follows: Mouse KMO enzyme assay: L-kynurenine hydroxylation to 3OH-KYN by LC/MS. The note with it: compound at 10 μM; KMO from mouse liver mitochondria; read-out: INH.Mouse @ 10 μM. It is filed as biochemical. The protocol: Product is quantified by multiple reaction monitoring (MRM method).
• Compound: Stock concentrations: 10 mM in 100% DMSO • Enzyme: KMO enzyme prepared at Evotec from mouse liver (4-6 weeks old) via mitochondria isolation as described in the literature • Substrate: L-Kynurenine (Sigma: Cat #K3750, stock concentration:
10 mM in 100 mM potassium phosphate buffer, pH 7.4)
In the case of `O=C(O)C1CNCCN1c1cc(-c2ccc(Cl)c(Cl)c2)ncn1` (stereo not shown) [1-(6-(3,4-dichlorophenyl)pyrimidin-4-yl)piperazine-2-carboxylic acid], the inhibition at 10 µM was 30%.
Still for that read-out and setting: the same measure for `O=C(O)C1CCC(c2cc(-c3ccc(OC4CC4)c(Cl)c3)ncn2)N1` (stereo not shown) [5-(6-(3-chloro-4-cyclopropoxyphenyl)pyrimidin-4-yl)pyrrolidine-2-carboxylic acid]: 84%; for `FC(F)(F)c1c[nH]c(-c2cc(-c3ccc(Cl)c(Cl)c3)ncn2)n1` [4-(3,4-dichlorophenyl)-6-(4-(trifluoromethyl)-1H-imidazol-2-yl)pyrimidine]: 0%.
In the case of `O=c1[nH]c(-c2cc(-c3ccc(OC4CC4)c(Cl)c3)ncn2)no1` [3-[6-(3-chloro-4-cyclopropoxyphenyl)pyrimidin-4-yl]-4,5-dihydro-1,2,4-oxadiazol-5-one], the inhibition at 10 µM is 93%.
Same read-out and setting: the result for `O=C(O)C1CN(c2cc(-c3ccc(Cl)c(Cl)c3)ncn2)CCN1` (stereo not shown) [4-(6-(3,4-dichlorophenyl)pyrimidin-4-yl)piperazine-2-carboxylic acid] reads 0%; that for `CC(C)Oc1ccc(-c2cc(C3CNC(C(=O)O)C3)ncn2)cc1Cl` (stereo not shown) [4-(6-(3-chloro-4-isopropoxyphenyl)pyrimidin-4-yl)pyrrolidine-2-carboxylic acid], 71%; that for `O=C(O)[C@@H]1CCCN1c1cc(-c2ccc(Cl)c(Cl)c2)ncn1` [(S)-1-(6-(3,4-dichlorophenyl)pyrimidin-4-yl)pyrrolidine-2-carboxylic acid], 11%.
Same read-out and setting: the result for `O=C(O)C1CCN(c2cc(-c3ccc(Cl)c(Cl)c3)ncn2)C1` (stereo not shown) [1-(6-(3,4-dichlorophenyl)pyrimidin-4-yl)pyrrolidine-3-carboxylic acid] reads 14%.
Same read-out and setting: the same measure for `O=C(O)[C@H]1CCCN1c1cc(-c2ccc(Cl)c(Cl)c2)ncn1` [(R)-1-(6-(3,4-dichlorophenyl)pyrimidin-4-yl)pyrrolidine-2-carboxylic acid]: 7%.
Consider `Clc1cc(-c2cc(-c3nn[nH]n3)ncn2)ccc1OC1CC1` [4-(3-chloro-4-cyclopropoxyphenyl)-6-(1H-1,2,3,4-tetrazol-5-yl)pyrimidine], for which the inhibition at 10 µM stood at 100%.
With `Clc1cc(-c2cc(-c3ncco3)ncn2)ccc1OC1CC1` [2-(6-(3-chloro-4-cyclopropoxyphenyl)pyrimidin-4-yl)oxazole], the inhibition at 10 µM came out at 71%.

Tested on in another data set: not listed separately
Put plainly: Solubility remark made during LCMS characterisation. It is filed as physicochemical. To be noted: solvent for LCMS analysis.
On to `Cn1[nH]cc(-c2cc(-c3ccc(Cl)c(Cl)c3)ncn2)c1=O`, for which the “solubility (remark in words)” value is “Compound is insufficiently soluble in any acceptable solvent in order to obtain a meaningful LCMS 1H NMR (500 MHz, DMSO-d6) d ppm 8.88 (1 H, s), 8.44 (1 H, br. s.), 8.26 (1 H, br. s.), 8.19 (1 H, d), 8.06 (1 H, br. s.), 7.85 (1 H, d), 3.45 (3 H, s)”.
On the same count and under the same terms, the same measure for `O=c1[nH]nc(-c2cc(-c3ccc(Cl)c(Cl)c3)ncn2)[nH]1`: “very unsoluble compound- LCMS unobtainable ^1H NMR (250 MHz, DMSO- d6) ppm 9.27-9.32 (1 H, m), 8.39-8.47 (2 H, m), 8.17- 8.25 (1 H, m), 7.76-7.85 (1 H, m)”.
